Ten compounds from patent US5037822A, “1-arylsulphonyl-2-pyrrolidinethione or 1-arylsulphonyl-2-piperidinethione derivatives, process for the preparation thereof their application as medicinal products and compositions containing them” (Roussel-Uclaf, priority 1989, dated 1991) can be followed below.

Usually IC50 stands for the concentration that gives 50% inhibition.

Where two headings read alike, the source gives them in different places.

The target of one test is T1, Muscarinic receptor 1 (Rattus norvegicus, UniProt P08482).
T1 construct: cortices removed from the brains of male rats; tissue Iffa Credo (animals); host or cells: cerebral cortex of male rats weighing 150 to 200 g, homogenate
T1 sequence (P08482 1-460): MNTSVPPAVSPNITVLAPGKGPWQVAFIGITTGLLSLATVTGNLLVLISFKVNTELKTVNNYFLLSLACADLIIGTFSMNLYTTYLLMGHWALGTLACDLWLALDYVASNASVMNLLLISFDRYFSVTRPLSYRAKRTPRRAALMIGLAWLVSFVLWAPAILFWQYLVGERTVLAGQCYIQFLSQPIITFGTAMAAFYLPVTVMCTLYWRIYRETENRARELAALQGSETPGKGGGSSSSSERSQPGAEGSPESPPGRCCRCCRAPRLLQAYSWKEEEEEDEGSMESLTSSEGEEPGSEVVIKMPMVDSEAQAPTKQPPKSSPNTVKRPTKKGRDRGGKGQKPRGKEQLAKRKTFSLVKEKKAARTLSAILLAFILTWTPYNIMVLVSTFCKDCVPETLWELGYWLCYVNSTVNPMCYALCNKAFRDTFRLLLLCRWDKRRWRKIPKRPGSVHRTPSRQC
Nature of the test: Binding to muscarinic receptor 1 ([3H]pirenzepine). As to conditions: 0.25 nM [3H]pirenzepine, rat cortex homogenate, pH 7.4, 60 min, 25° C.; read-out: Affinity for M1 muscarinic receptor, IC50. The protocol:
Preparation of this is carried out from cortices removed from the brains of male rats weighing 150 to 200 g (Iffa Credo), ground in a Polytron in a 10 mM Na/K buffer pH 7.4. After incubation (0.5 ml aliquots of homogenate) for 60 minutes at 25° C. in the presence of 0.25 nM [^3 H]pirenzepine, either alone, or with the test product, or with an excess of 10^-5 M pirenzepine (to determine the non-specifically bound radioactivity), the incubates are cooled and filtered.
The filtration is performed on Whatman GF/C filters prewashed in a 0.05% strength solution of polyethylenimine. The filters are rinsed with 3×5 ml of 10 mM Na/K phosphate buffer pH 7.4 and the measurements are then performed by liquid scintillation.
(§1) The results are expressed as an IC50 (concentration needed to inhibit by 50% the specifically bound radioactivity).

The test system of test [1] is isolated guinea pig ileum. Kind of test: Agonist action on isolated guinea pig ileum. Format: cell-based. As to conditions: Cavia porcellus, read-out: Agonist action pD2 (converted). On the procedure: (§2) The interaction of the compounds with different receptors was assessed on isolated guinea pig ileum according to the following method.
(§3) Guinea pig ileum segments measuring 2.5-3 cm were washed and immediately suspended in a bath containing 10 ml of Tyrode's solution at 37° C. aerated with a mixture of oxygen (95%) and carbon dioxide (5%). After a stabilization period of at least 30 minutes, the contractions were recorded, maintaining the preparation under constant tension of 1 g using a gauge connected to a polygraph. The agonist action was assessed by leaving the compound in contact with the isolated tissue for a period necessary for expressing the maximal contraction; the preparation was then washed with Tyrode's solution. The next dose was added to the bath only after the preparation had returned to its base line. As a reference product, arecoline was employed. The antagonist action was assessed on contractions induced by acetylchloine (1×10^-6 M), histamine (1×10^-5 M) and barium chloride (2×10^-4 M). Atropine, diphenhydramine and papaverine were employed as reference products. The contact time before adding the agonist was one minute.
(§4) For each compound, the dose-response curves are obtained with 4 to 6 different concentrations and 3 to 5 independent tests. The agonist activity is expressed by pD2 (negative logarithm of the dose which produces 50% of the maximum effect). The antagonist activity is expressed by IC50 (concentration inhibiting 50% of the maximal response).

The subject of test [2] is isolated guinea pig ileum, contractions induced by acetylcholine. Nature of the test: Antagonist action on acetylcholine-induced contractions of isolated guinea pig ileum. The class given is cell-based. The note with it: Cavia porcellus, read-out: Antagonist to ACh, IC50. The protocol: as §2, §3, §4
A further test deals with Muscarinic receptor 2. Nature of the test: Binding to muscarinic receptor 2 ([3H]quinuclidinyl benzylate). The note with it: 0.3 nM [3H]quinuclidinyl benzylate, rat brain, pH 7.5, 60 min, 25° C.; read-out: Affinity for M2 muscarinic receptor, IC50. The protocol:
The preparation is performed from brains of male rats weighing 150 to 200 g (Iffa Credo).
The brains are ground (Teflon-glass) in 0.32M sucrose solution. The homogenate is centrifuged for 10 minutes at 1,000 g (0°-4° C.).
The supernatant obtained is collected and centrifuged at 30,000 g for 15 minutes (0°-4° C.).
The pellet is resuspended in 50 mM Tris buffer pH 7.5 and the new homogenate is centrifuged again at 30,000 g for 15 minutes (0°-4° C.).
After removal of the supernatant, the pellets may be used immediately or stored for up to 1 month at -30° C.
For an experiment, the pellets are first thawed, if necessary, at room temperature and resuspended using a Dounce in 50 mM Tris buffer pH 7.5. 2 ml aliquots are incubated for 60 minutes at 25° C. in the presence of 0.3 nM [^3 H]quinuclidinyl benzylate, either alone, or with the test product, or with 10^-5 M benzatropine to determine the non-specifically bound radioactivity.
At the end of the incubation period, the incubate tubes are cooled to 4° C. and filtered rapidly on Whatman GF/C filters. The filters are rinsed with 3×5 ml of 50 mM Tris buffer pH 7.5 and the measurements are then performed by liquid scintillation (Henry I. Yamamura, Solomon H. Snyder, Proc. Nat. Acad. Sc. (1974) 71, No. 5, 1725-1729).
as §1

The test system of test [3] is cholinomimetic effects induced by carbachol. Kind of test: In vivo anticholinergic action: inhibition of carbachol-induced cholinomimetic effects in mice. Further details: species or system CD1 male mice. The note with it: for ED (1 C) / ED50: Mus musculus, ip; for ED (1 C): read-out: Body temperature: dose increasing by 1° C. the hypothermic effect induced by the cholinergic agent. On the procedure:
The anticholinergic activity of the compounds was determined by assessing the capacity to inhibit the cholinomimetic effects induced by carbachol. Atropine sulphate was employed as a reference product.
CD1 male mice weighing 25 to 30 g were used. They were distributed in groups of 6 animals and treated intraperitoneally with scalar doses of the products or 0.25% Methocel for the controls. 12 animals were used for each dose. 30 minutes after administration of the compounds, the mice were injected subcutaneously with 1 mg/kg of carbachol dissolved in physiological saline.
Each animal was examined 30 minutes after the injection of carbachol to assess the presence of diarrhoea, salivation and eye watering; in addition, the body temperature was measured by means of a thermocouple inserted 1.5 cm into the rectum.
For each compound, we have determined and recorded in the following table the dose capable of inhibiting the appearance of the carbachol-induced cholinometric symptoms in 50% of the animals, and of increasing by 1° C. the hypothermic effect induced by the cholinergic agent.

The subject of test [4] is isolated guinea pig ileum, contractions induced by histamine. Nature of the test: Antagonist action on histamine-induced contractions of isolated guinea pig ileum. The class given is cell-based. As to conditions: Cavia porcellus; histamine 1×10^-5 M, contact time one minute, 37° C.; read-out: Antagonist to Histam., IC50. On the procedure: as §2
as §3, with “The antagonist action was assessed on contractions induced by acetylchloine (1×10^-6 M), histamine (1×10^-5 M) and barium chloride (2×10^-4 M). Atropine, diphenhydramine and papaverine were employed as reference products.” left out
as §4

For test [5], the system named is isolated guinea pig ileum, contractions induced by barium chloride. Nature of the test: Antagonist action on barium chloride-induced contractions of isolated guinea pig ileum. Format: cell-based. As to conditions: Cavia porcellus, read-out: Antagonist to BaCl2, IC50. The protocol: as §2, §3, §4
The mark [6] stands for this setting: negative logarithm of the dose producing 50% of the maximum effect, 37° C.
[7] abbreviates: acetylcholine 1×10^-6 M, contact time one minute, 37° C.
The mark [8] stands for this setting: 30 min before carbachol 1 mg/kg s.c., mice.
Where [9] appears, read: 30 min before carbachol 1 mg/kg s.c., mice, read-out: Dose inhibiting carbachol-induced diarrhoea in 50% of the animals.
[10] abbreviates: 30 min before carbachol 1 mg/kg s.c., mice, read-out: Dose inhibiting carbachol-induced eye watering in 50% of the animals.
Setting [11] is: 30 min before carbachol 1 mg/kg s.c., mice, read-out: Dose inhibiting carbachol-induced salivation in 50% of the animals.
Setting [12] is: barium chloride 2×10^-4 M, contact time one minute, 37° C.

Turning to `CCN(CC)c1ccc(S(=O)(=O)N2CCCC2=S)cc1` [Example 1, 1-[4-(Diethylamino)benzenesulphonyl]-2-pyrrolidinethione], the half-inhibitory concentration (IC50) on Muscarinic receptor 1 is 43 nM; in test [2] (setting [7]) it was 570 nM; at Muscarinic receptor 2, 2200 nM; in test [4], more than 10000 nM; in test [5] (setting [12]), more than 10000 nM. Also, the EC50 in test [1] (setting [6]) was more than 10000 nM. In addition, the ED (1 C) in test [3] (setting [8]) is more than 50 mg/kg. Moreover, the ED50 is 5 mg/kg in test [3] (setting [9]), more than 50 mg/kg in test [3] (setting [10]) and more than 50 mg/kg in test [3] (setting [11]).
For `O=S(=O)(c1ccc(N2CCCCCC2)cc1)N1CCCCC1=S` [Example 6, 1-[4-(1-Hexahydroazepinyl)benzenesulphonyl]-2-piperidinethione], the IC50 at Muscarinic receptor 1 is 12 nM; in test [2] (setting [7]), 190 nM; on Muscarinic receptor 2 it was 230 nM; in test [5] (setting [12]), more than 10000 nM. In addition, the EC50 in test [1] (setting [6]) was more than 10000 nM. Besides, the ED (1 C) in test [3] (setting [8]) is more than 50 mg/kg. Further, the ED50 is 2 mg/kg in test [3] (setting [9]), more than 50 mg/kg in test [3] (setting [10]) and 40 mg/kg in test [3] (setting [11]).
As to `O=S(=O)(c1ccc(N2CCCCCC2)cc1)N1CCCC1=S` [Example 5, 1-[4-(1-Hexahydroazepinyl)benzenesulphonyl]-2-pyrrolidinethione], the IC50 on Muscarinic receptor 1 was 10 nM; in test [2] (setting [7]) it was 280 nM; on Muscarinic receptor 2, 120 nM; in test [5] (setting [12]), more than 10000 nM. In test [1] (setting [6]), the EC50 is more than 10000 nM. For the same compound, the ED (1 C) in test [3] (setting [8]) was 12 mg/kg. The ED50 in test [3] (setting [9]) is 0.6 mg/kg; in test [3] (setting [10]) it was more than 50 mg/kg; in test [3] (setting [11]) it was 15 mg/kg.
As to `O=S(=O)(c1ccc(N2CCCCC2)cc1)N1CCCC1=S` [Example 3, 1-[4-(1-piperidyl)benzenesulphonyl]-2-pyrrolidinethione], the IC50 is 25 nM on Muscarinic receptor 1, 2600 nM in test [2] (setting [7]), 650 nM on Muscarinic receptor 2 and more than 10000 nM in test [5] (setting [12]). The EC50 in test [1] (setting [6]) was more than 10000 nM. In addition, in test [3] (setting [8]), the ED (1 C) was more than 50 mg/kg. Moreover, the figures for the ED50 in test [3] (setting [9]), in test [3] (setting [10]) and in test [3] (setting [11]) were 3 mg/kg, more than 50 mg/kg and more than 50 mg/kg, respectively.
On to `CN1[C@@H]2CC[C@H]1C[C@@H](OC(=O)C(CO)c1ccccc1)C2` (stereo partly shown) [Atropine, reference compound], for which the IC50 in test [2] came to 9.5 nM. In addition, the ED50 came to 0.04 mg/kg in test [3] (read-out: Dose inhibiting carbachol-induced diarrhoea in 50% of the animals), 0.05 mg/kg in test [3] (read-out: Dose inhibiting carbachol-induced eye watering in 50% of the animals) and 0.06 mg/kg in test [3] (read-out: Dose inhibiting carbachol-induced salivation in 50% of the animals).
Consider `COc1ccc(Cc2nccc3cc(OC)c(OC)cc23)cc1OC` [Papaverine, papaverine, reference compound], for which the IC50 in test [5] was 45000 nM.
Consider `COC(=O)C1=CCCN(C)C1` [Arecoline, arecoline, reference compound], for which the EC50 in test [1] was 209 nM.
For the compound `O=S(=O)(c1ccc(N2CCCCC2)cc1)N1CCCCC1=S` [Example 4, 1-[4-(1-Piperidyl)benzenesulphonyl]-2-piperidinethione], the IC50 at Muscarinic receptor 1 is 30 nM; in test [2] (setting [7]) it was 3600 nM; at Muscarinic receptor 2, 580 nM; in test [5] (setting [12]), more than 10000 nM. For the same compound, the EC50 in test [1] (setting [6]) was more than 10000 nM. The ED (1 C) in test [3] (setting [8]) was more than 50 mg/kg. The figures for the ED50 in test [3] (setting [9]), in test [3] (setting [10]) and in test [3] (setting [11]) were 7 mg/kg, more than 50 mg/kg and more than 50 mg/kg, respectively.
Regarding `C[N+](C)(C)CCOC(N)=O` [Carbachol, carbachol, reference compound], in test [3] (1 mg/kg s.c., control mice), the “cholinomimetic symptoms induced by carbachol” value was “induced diarrhoea, salivation and eye watering in all the control mice”; the “decrease in rectal temperature induced by carbachol” value was “approximately 2.5 °C”.
Consider `CCN(CC)c1ccc(S(=O)(=O)N2CCCCC2=S)cc1` [Example 2, 1-[4-(diethylamino)benzenesulphonyl]-2-piperidinethione], for which the IC50 was 73 nM on Muscarinic receptor 1; 340 nM in test [2] (setting [7]); 1900 nM at Muscarinic receptor 2; more than 10000 nM in test [4]; more than 10000 nM in test [5] (setting [12]). The EC50 in test [1] (setting [6]) is more than 10000 nM. The ED (1 C) in test [3] (setting [8]) is more than 50 mg/kg. Moreover, the ED50 in test [3] (setting [9]) is 8 mg/kg; in test [3] (setting [10]), more than 50 mg/kg; in test [3] (setting [11]) it was more than 50 mg/kg.
